From PMC7486443, “Generation of Phenothiazine with Potent Anti-TLK1 Activity for Prostate Cancer Therapy” (iScience, 2020)

Legend:
Experiment in all cases: biochemical
Parameters in all cases: DiscoverX KINOMEscan scanMAX competition binding panel, single concentration, percent of control; remaining binding: dose or concentration left out as unconfirmed
Settings in all cases: KINOMEscan binding, percent of control; read-out: Table S4_SCANMAX REPORT - related to Fig. 1 / Percent Control
PCTK2 = target: T1, PCTK2 (Homo sapiens, UniProt Q00537)
T1 construct: gene CDK17
T1 sequence (Q00537 whole entry): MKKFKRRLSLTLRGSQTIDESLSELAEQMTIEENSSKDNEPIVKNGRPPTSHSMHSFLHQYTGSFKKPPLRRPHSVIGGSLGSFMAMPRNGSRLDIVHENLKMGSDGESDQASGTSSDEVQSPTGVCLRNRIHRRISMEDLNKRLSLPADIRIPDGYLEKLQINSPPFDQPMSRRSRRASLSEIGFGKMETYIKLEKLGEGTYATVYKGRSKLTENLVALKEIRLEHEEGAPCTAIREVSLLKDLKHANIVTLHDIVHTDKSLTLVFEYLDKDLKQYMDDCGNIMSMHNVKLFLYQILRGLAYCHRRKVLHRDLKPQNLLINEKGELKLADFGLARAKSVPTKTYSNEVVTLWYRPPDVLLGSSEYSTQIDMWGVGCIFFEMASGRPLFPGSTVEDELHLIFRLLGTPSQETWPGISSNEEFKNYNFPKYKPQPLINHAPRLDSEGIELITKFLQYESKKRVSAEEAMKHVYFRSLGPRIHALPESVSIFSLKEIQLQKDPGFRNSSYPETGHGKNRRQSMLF

CSNK1G3 = CSNK1G3 (Homo sapiens, UniProt Q9Y6M4)
PLK2 = PLK2 (Homo sapiens, UniProt Q9NYY3)
EPHA4 = EPHA4 (Homo sapiens, UniProt P54764)
Sequence of EPHA4 (P54764 whole entry): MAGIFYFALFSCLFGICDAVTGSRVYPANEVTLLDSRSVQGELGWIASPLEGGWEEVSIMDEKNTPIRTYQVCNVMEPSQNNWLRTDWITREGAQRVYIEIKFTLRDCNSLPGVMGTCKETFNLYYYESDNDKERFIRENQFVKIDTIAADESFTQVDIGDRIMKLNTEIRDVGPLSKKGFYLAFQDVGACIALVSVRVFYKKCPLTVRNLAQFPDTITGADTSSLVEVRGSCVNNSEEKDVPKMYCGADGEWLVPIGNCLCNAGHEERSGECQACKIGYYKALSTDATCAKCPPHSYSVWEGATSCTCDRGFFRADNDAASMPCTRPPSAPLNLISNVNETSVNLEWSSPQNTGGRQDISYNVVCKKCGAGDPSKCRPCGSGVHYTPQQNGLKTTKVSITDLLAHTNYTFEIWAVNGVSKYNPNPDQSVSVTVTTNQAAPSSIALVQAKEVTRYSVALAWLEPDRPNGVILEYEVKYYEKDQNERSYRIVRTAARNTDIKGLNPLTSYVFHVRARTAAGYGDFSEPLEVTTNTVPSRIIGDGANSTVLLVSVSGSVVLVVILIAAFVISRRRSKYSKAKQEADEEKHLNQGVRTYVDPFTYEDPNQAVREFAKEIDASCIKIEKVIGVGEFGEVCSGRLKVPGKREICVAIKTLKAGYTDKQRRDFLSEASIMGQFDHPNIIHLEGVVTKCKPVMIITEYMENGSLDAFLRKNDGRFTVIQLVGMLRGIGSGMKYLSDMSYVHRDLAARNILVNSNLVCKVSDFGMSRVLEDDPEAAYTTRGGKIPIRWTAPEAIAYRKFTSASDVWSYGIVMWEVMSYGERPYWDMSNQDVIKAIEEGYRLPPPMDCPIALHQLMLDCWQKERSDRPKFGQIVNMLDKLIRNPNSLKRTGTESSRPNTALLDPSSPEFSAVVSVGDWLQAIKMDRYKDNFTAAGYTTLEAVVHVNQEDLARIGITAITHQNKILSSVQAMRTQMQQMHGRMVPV

AURKA = AURKA (Homo sapiens, UniProt O14965)
PLK4 = PLK4 (Homo sapiens, UniProt O00444)
KIT(A829P) = KIT(A829P) (Homo sapiens, UniProt P10721, A829P)
ABL1-nonphosphorylated = target: T2, ABL1-nonphosphorylated (Homo sapiens, UniProt P00519)
T2 construct: nonphosphorylated

FLT3-autoinhibited = FLT3-autoinhibited (Homo sapiens, UniProt P36888)
Sequence of FLT3-autoinhibited (P36888 whole entry): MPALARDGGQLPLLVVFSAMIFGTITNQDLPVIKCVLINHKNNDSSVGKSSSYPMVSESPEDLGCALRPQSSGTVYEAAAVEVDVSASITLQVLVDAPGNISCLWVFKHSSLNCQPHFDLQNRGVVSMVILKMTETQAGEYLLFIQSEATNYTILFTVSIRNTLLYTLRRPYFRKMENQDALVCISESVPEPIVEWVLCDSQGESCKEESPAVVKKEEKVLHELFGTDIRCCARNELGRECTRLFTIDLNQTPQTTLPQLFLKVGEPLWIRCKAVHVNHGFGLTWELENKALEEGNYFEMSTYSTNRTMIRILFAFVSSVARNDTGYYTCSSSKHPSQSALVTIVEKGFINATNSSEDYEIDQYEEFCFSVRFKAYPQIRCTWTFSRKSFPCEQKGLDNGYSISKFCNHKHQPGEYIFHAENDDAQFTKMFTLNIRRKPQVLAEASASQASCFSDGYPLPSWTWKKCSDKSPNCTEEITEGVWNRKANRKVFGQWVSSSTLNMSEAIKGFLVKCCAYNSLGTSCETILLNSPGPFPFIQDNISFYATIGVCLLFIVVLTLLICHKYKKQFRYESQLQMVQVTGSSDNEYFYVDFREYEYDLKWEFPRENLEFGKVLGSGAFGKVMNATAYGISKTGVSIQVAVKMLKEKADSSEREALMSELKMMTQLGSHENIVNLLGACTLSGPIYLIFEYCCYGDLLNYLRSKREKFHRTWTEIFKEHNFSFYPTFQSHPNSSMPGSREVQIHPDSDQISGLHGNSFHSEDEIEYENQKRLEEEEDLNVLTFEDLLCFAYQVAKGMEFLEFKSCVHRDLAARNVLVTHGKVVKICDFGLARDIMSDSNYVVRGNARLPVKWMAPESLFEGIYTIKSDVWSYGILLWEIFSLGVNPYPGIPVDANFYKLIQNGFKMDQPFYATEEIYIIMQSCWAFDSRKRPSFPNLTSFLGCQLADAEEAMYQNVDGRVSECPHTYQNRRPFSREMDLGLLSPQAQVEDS

PDPK1 = PDPK1 (Homo sapiens, UniProt O15530)
MAP4K4 = MAP4K4 (Homo sapiens, UniProt O95819)
[1] = target: T3, ABL1(Q252H)-nonphosphorylated (Homo sapiens, UniProt P00519, Q252H)
T3 construct: nonphosphorylated

ROS1 = ROS1 (Homo sapiens, UniProt P08922)
Sequence of ROS1 (P08922 whole entry): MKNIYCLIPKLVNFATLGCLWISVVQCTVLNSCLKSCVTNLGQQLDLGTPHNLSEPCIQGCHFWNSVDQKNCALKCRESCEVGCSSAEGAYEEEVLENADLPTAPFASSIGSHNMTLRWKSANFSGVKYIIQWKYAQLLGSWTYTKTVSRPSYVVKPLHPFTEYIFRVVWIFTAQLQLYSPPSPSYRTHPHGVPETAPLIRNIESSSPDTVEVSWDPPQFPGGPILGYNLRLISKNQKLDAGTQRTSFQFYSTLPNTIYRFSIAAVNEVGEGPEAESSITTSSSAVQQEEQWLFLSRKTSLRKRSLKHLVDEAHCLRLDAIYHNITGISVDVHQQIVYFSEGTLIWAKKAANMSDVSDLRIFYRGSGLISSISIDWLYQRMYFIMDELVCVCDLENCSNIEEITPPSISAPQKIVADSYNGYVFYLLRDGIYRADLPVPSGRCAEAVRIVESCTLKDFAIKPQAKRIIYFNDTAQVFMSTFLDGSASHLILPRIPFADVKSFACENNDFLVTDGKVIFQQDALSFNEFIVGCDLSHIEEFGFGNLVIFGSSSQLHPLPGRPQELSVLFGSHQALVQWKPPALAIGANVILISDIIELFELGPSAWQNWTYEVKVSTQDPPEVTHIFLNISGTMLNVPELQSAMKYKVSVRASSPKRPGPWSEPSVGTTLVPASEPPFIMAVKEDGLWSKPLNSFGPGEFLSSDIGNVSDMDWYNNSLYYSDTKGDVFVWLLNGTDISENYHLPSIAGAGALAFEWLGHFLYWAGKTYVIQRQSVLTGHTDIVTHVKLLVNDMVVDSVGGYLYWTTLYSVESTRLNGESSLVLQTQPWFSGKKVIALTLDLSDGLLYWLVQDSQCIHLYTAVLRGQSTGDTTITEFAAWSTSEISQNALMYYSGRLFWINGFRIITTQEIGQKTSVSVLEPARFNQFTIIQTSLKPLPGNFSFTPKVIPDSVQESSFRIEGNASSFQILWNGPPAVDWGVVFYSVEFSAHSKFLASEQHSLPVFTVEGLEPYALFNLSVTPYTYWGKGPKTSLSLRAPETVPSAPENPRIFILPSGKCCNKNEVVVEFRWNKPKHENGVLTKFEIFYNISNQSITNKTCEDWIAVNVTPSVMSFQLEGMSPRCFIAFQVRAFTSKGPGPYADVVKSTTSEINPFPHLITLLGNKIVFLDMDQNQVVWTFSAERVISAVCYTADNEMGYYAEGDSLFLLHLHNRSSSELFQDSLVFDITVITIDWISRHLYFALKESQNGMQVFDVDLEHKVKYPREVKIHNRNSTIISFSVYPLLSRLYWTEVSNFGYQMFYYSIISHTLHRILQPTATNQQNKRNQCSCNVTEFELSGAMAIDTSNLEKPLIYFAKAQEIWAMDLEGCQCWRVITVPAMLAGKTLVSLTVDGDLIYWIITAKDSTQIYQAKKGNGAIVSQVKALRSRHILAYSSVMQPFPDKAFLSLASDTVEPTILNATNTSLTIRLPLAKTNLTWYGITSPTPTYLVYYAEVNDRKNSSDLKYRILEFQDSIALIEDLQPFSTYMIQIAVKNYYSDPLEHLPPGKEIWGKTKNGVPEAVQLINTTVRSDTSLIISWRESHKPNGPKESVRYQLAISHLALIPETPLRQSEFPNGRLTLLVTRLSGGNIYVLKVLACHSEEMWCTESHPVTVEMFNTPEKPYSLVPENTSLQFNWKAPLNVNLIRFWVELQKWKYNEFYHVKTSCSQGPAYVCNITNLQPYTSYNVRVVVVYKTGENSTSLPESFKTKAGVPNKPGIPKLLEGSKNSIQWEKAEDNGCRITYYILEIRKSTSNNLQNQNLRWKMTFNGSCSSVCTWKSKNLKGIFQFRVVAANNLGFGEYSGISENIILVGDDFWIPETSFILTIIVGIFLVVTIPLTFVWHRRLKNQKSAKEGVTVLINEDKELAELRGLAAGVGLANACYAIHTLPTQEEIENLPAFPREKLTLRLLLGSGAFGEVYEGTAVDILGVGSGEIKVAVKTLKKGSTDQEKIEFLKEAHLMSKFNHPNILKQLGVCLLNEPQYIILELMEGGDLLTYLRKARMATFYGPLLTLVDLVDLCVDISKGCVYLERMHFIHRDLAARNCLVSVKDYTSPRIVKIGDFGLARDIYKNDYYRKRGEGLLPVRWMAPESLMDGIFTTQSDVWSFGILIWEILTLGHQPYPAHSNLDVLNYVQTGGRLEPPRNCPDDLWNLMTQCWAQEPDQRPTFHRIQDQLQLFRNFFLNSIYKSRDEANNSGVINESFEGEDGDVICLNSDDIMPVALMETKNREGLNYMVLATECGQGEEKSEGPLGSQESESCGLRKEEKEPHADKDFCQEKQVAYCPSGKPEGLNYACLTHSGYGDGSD

EPHA2 = EPHA2 (Homo sapiens, UniProt P29317)
FGFR1 = FGFR1 (Homo sapiens, UniProt P11362)
CDK4 = CDK4 (Homo sapiens, UniProt P11802)
SRC = SRC (Homo sapiens, UniProt P12931)
MAP3K4 = MAP3K4 (Homo sapiens, UniProt Q9Y6R4)
MAP3K1 = MAP3K1 (Homo sapiens, UniProt Q13233)

c1ccc2c(c1)Sc1ccccc1N2CCN1CCOCC1 [J54]
remaining binding (PCTK2): 100% | remaining binding (CSNK1G3): 100% | remaining binding (PLK2): 100% | remaining binding (EPHA4): 100% | remaining binding (AURKA): 100% | remaining binding (PLK4): 85% | remaining binding (KIT(A829P)): 94% | remaining binding (ABL1-nonphosphorylated): 95% | remaining binding (FLT3-autoinhibited): 100% | remaining binding (PDPK1): 92% | remaining binding (MAP4K4): 66% | remaining binding [1]: 78% | remaining binding (ROS1): 100% | remaining binding (EPHA2): 100% | remaining binding (FGFR1): 94% | remaining binding (CDK4): 100% | remaining binding (SRC): 96% | remaining binding (MAP3K4): 97% | remaining binding (MAP3K1): 100%
